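48-hour exposure; five concentrations; linearly interpolated endpoints. GI50 is the concentration that inhibits growth by half. TGI marks complete inhibition of growth.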
Legend:
Test in all cases: NCI-60 cell line screen, 48 h
RPMI-8226 leukemia = system: RPMI-8226 leukemia
MALME-3M melanoma = system: MALME-3M melanoma
NCI-H23 lung = system: NCI-H23 lung
COLO 205 colon = system: COLO 205 colon
SK-OV-3 ovarian = system: SK-OV-3 ovarian
NCI-H522 lung = system: NCI-H522 lung
786-0 renal = system: 786-0 renal
OVCAR-3 ovarian = system: OVCAR-3 ovarian
HOP-92 NSCLC = system: HOP-92 NSCLC
HOP-62 NSCLC = system: HOP-62 NSCLC
PC-3 prostate = system: PC-3 prostate
HCT-15 colon = system: HCT-15 colon
NCI-H460 lung = system: NCI-H460 lung
M14 melanoma = system: M14 melanoma
KM12 colon = system: KM12 colon
MDA-MB-231 breast = system: MDA-MB-231 breast
A549 NSCLC = system: A549 NSCLC
UO-31 renal = system: UO-31 renal
LOX IMVI melanoma = system: LOX IMVI melanoma
SNB-19 CNS = system: SNB-19 CNS
MOLT-4 leukemia = system: MOLT-4 leukemia
SF-539 CNS = system: SF-539 CNS
HS 578T breast = system: HS 578T breast
SR leukemia = system: SR leukemia
ACHN renal = system: ACHN renal
OVCAR-4 ovarian = system: OVCAR-4 ovarian
SF-295 CNS = system: SF-295 CNS

Work on `Oc1cc2ccccc2cc1-c1n[nH]c(=S)n1CCc1ccccc1` yielded a TGI (RPMI-8226 leukemia) of 62.5 µM, a GI50 (MALME-3M melanoma) of 26.7 µM and a TGI (MALME-3M melanoma) of 58.9 µM. It also gave a GI50 (NCI-H23 lung) of 16.5 µM, a TGI (NCI-H23 lung) of 36.1 µM and a GI50 (COLO 205 colon) of 35.1 µM. The TGI (COLO 205 colon) was > 100 µM, the GI50 (SK-OV-3 ovarian) was 25.9 µM and the TGI (SK-OV-3 ovarian) was > 100 µM. It also gave a GI50 (NCI-H522 lung) of 15.3 µM, a TGI (NCI-H522 lung) of 31.3 µM and a GI50 (786-0 renal) of 18.3 µM. The TGI (786-0 renal) was 36.2 µM, the GI50 (OVCAR-3 ovarian) was 34.4 µM and the TGI (OVCAR-3 ovarian) was 94 µM. The GI50 (HOP-92 NSCLC) was 55.7 µM, the TGI (HOP-92 NSCLC) was > 100 µM and the GI50 (HOP-62 NSCLC) was 25.7 µM. For the same molecule, the TGI (HOP-62 NSCLC) was 43.6 µM, the GI50 (PC-3 prostate) was 20.6 µM and the TGI (PC-3 prostate) was 43.5 µM. For the same molecule, the GI50 (HCT-15 colon) was 22.5 µM, the TGI (HCT-15 colon) was 51.9 µM and the GI50 (NCI-H460 lung) was 20.2 µM. For the same molecule, the TGI (NCI-H460 lung) was 35.3 µM, the GI50 (M14 melanoma) was 15.8 µM and the TGI (M14 melanoma) was 32.2 µM. For the same molecule, the GI50 (KM12 colon) was 43.2 µM, the TGI (KM12 colon) was > 100 µM and the GI50 (MDA-MB-231 breast) was 22.1 µM. For the same molecule, the TGI (MDA-MB-231 breast) was 57.8 µM, the GI50 (A549 NSCLC) was 37.3 µM and the TGI (A549 NSCLC) was > 100 µM. It also gave a GI50 (UO-31 renal) of 20.3 µM, a TGI (UO-31 renal) of 52.7 µM and a GI50 (LOX IMVI melanoma) of 22.1 µM. For the same molecule, the TGI (LOX IMVI melanoma) was 38.7 µM, the GI50 (SNB-19 CNS) was 36.7 µM and the TGI (SNB-19 CNS) was > 100 µM. The GI50 (MOLT-4 leukemia) was > 100 µM, the TGI (MOLT-4 leukemia) was > 100 µM and the GI50 (SF-539 CNS) was 21.3 µM. The TGI (SF-539 CNS) was 44.5 µM, the GI50 (HS 578T breast) was 24.2 µM and the TGI (HS 578T breast) was 57 µM. For the same molecule, the GI50 (SR leukemia) was > 100 µM, the TGI (SR leukemia) was > 100 µM and the GI50 (ACHN renal) was 22.4 µM. The TGI (ACHN renal) was 69.8 µM, the GI50 (OVCAR-4 ovarian) was 42.2 µM and the TGI (OVCAR-4 ovarian) was > 100 µM. For the same molecule, the GI50 (SF-295 CNS) was 42.3 µM and the TGI (SF-295 CNS) was > 100 µM.

Reference: PubChem BioAssay (NCI)
